Source: patent US20260285872A1, “COMPOUNDS AND METHODS FOR DEGRADING GSPT1” (priority 2023, published 2026)
Like-named read-outs stand apart in the source and are kept apart here.

Tests used:
GSPT1 = GSPT1 (Homo sapiens, UniProt P15170+Q96SW2); type: cell-based
Method: GSPT1_HiBIT_HEK293 cells were culture in DMEM medium with 10% FBS under standard tissue culture conditions. […] GSPT1 level was determined in along with the Nano-Glo HiBiT Lytic Detection system [Promega N3050] with final concentration of 1×. The luminescence was normalized to that of DMSO-treated samples. DC50 values were obtained using three-parameter non-linear regressions using Prism (GraphPad).

NCI-H1155 cells = experiment: NSCLC cell viability, CellTiter-Glo, NCI-H1155 cells; type: cell-based; conditions: Homo sapiens; NCI-H1155 cells, CellTiter-Glo, 72 hours of treatment; read-out: Cell viability classification (NCI-H1155)
[1] = read-out: GSPT1 degradation classification; DC50, GSPT1_HiBIT_HEK293 cells, 16 hours, Nano-Glo HiBiT Lytic Detection
[2] = DC50, GSPT1_HiBIT_HEK293 cells, 16 hours, Nano-Glo HiBiT Lytic Detection; read-out: GSPT1 degradation classification

Sequence of GSPT1 (P15170 whole entry): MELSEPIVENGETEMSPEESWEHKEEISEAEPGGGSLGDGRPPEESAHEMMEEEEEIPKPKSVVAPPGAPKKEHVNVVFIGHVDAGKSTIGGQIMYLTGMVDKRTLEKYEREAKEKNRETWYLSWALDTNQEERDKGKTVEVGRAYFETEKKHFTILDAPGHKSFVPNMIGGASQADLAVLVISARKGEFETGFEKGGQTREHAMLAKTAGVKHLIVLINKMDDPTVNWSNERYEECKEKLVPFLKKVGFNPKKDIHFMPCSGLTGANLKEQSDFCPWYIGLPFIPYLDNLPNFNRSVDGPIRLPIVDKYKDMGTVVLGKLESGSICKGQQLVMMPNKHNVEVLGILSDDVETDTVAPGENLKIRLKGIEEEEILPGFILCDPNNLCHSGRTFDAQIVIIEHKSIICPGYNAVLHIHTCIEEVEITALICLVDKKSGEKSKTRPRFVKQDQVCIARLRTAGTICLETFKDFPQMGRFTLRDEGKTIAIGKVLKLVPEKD
Sequence of GSPT1 (Q96SW2 whole entry): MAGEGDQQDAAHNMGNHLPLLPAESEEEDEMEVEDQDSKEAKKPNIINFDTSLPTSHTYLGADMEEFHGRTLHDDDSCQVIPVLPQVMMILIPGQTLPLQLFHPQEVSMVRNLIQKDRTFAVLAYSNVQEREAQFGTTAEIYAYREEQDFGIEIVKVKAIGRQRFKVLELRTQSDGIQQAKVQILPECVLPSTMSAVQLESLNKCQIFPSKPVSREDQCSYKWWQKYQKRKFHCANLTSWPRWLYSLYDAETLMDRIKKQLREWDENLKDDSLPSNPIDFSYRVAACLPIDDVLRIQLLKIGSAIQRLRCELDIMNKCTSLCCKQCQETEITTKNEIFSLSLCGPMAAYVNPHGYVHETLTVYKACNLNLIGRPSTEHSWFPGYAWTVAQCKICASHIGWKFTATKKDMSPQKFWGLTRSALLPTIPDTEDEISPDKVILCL
Sequence of GSPT1 (Q16531 whole entry partner): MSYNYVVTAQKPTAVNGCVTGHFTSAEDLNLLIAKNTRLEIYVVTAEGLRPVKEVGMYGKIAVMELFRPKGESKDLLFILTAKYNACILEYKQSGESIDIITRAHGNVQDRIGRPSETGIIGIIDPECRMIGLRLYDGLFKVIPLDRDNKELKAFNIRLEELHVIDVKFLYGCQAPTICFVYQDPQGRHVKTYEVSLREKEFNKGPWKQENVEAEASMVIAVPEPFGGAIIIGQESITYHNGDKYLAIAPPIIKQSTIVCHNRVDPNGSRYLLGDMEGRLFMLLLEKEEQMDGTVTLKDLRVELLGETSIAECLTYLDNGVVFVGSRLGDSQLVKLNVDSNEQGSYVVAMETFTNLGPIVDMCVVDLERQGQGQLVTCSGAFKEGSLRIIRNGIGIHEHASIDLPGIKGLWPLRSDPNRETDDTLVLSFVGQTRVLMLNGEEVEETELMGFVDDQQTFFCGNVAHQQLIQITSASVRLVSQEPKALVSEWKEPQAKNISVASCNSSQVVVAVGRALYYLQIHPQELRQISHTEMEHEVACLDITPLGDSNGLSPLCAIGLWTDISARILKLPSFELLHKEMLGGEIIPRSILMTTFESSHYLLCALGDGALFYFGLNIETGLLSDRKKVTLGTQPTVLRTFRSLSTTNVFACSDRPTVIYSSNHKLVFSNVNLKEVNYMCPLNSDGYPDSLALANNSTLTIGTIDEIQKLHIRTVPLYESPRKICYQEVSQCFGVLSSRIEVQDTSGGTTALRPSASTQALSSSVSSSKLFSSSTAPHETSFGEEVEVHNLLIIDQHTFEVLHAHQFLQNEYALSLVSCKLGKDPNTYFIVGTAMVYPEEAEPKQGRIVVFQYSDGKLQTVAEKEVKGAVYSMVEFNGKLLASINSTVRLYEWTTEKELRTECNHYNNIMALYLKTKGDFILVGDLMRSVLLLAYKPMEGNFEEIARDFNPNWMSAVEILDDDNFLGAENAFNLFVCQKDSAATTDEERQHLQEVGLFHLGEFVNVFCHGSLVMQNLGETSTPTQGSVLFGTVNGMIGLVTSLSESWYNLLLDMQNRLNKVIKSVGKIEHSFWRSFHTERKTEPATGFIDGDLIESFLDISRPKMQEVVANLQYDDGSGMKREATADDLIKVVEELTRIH

| Structure (SMILES) | IC50 (NCI-H1155 cells) | DC50 (GSPT1; [2]) | DC50 (GSPT1; [1]) |
| --- | --- | --- | --- |
| O=C1CCC(N2Cc3cc(C(=O)N4Cc5cc(F)cc(F)c5C4)ccc3C2=O)C(=O)N1 (centres unmarked) [Example 103, 3-(5-(4,6-difluoroisoindoline-2-carbonyl)-1-oxoisoindolin-2-yl)piperidine-2,6-dione] | < 10 nM |  | < 100 nM |
| O=C1CCC(c2nc3ccc(C(=O)N4CCc5ccc(F)cc54)cc3o2)C(=O)N1 (centres unmarked) [Example 107, 3-(6-(6-fluoroindoline-1-carbonyl)benzo[d]oxazol-2-yl)piperidine-2,6-dione] | 100 to 1000 nM | 300 to 1000 nM |  |
| O=C1CCC(N2Cc3cc(C(=O)N4Cc5ccc(F)c(F)c5C4)ccc3C2=O)C(=O)N1 (centres unmarked) [Example 109, 3-(5-(4,5-difluoroisoindoline-2-carbonyl)-1-oxoisoindolin-2-yl)piperidine-2,6-dione] | 10 to 100 nM |  | < 100 nM |
| O=C1CCC(N2Cc3cc(C(=O)N4Cc5cccc(Cl)c5C4)ccc3C2=O)C(=O)N1 (centres unmarked) [Example 112, 3-(5-(4-chloroisoindoline-2-carbonyl)-1-oxoisoindolin-2-yl)piperidine-2,6-dione] | < 10 nM |  | < 100 nM |
| Cc1cccc2c1CN(C(=O)c1ccc3c(c1)CN(C1CCC(=O)NC1=O)C3=O)C2 (centres unmarked) [Example 130, 3-(5-(4-methylisoindoline-2-carbonyl)-1-oxoisoindolin-2-yl)piperidine-2,6-dione] | 10 to 100 nM |  | < 100 nM |
| C[C@@H]1CN(C(=O)c2ccc3c(c2)CN(C2CCC(=O)NC2=O)C3=O)c2cc(F)ccc21 (stereo partly drawn) [Example 133, 3-(5-((S)-6-fluoro-3-methylindoline-1-carbonyl)-1-oxoisoindolin-2-yl)piperidine-2,6-dione] | < 10 nM |  | < 100 nM |
| O=C1CCC(c2nc3ccc(C(=O)N4Cc5cccc(F)c5C4)cc3o2)C(=O)N1 (centres unmarked) [Example 137, 3-(6-(4-fluoroisoindoline-2-carbonyl)benzo[d]oxazol-2-yl)piperidine-2,6-dione] | 100 to 1000 nM | 300 to 1000 nM |  |
| O=C1CCC(N2Cc3cc(C(=O)N4CC5(CC(C(F)(F)F)C5)C4)ccc3C2=O)C(=O)N1 (centres unmarked) [Example 145, 3-(1-oxo-5-(6-(trifluoromethyl)-2-azaspiro[3.3]heptane-2-carbonyl)isoindolin-2-yl)piperidine-2,6-dione] | 10 to 100 nM |  | > 1000 nM |
| O=C1CCC(N2Cc3cc(C(=O)N4Cc5c(F)ccc(F)c5C4)ccc3C2=O)C(=O)N1 (centres unmarked) [Example 147, 3-(5-(4,7-difluoroisoindoline-2-carbonyl)-1-oxoisoindolin-2-yl)piperidine-2,6-dione] | 10 to 100 nM |  | < 100 nM |
| Cc1cccc2c1CN(C(=O)c1ccc3nc(C4CCC(=O)NC4=O)oc3c1)C2 (centres unmarked) [Example 161, 3-(6-(4-methylisoindoline-2-carbonyl)benzo[d]oxazol-2-yl)piperidine-2,6-dione] | 10 to 100 nM | 100 to 300 nM |  |
| O=C1CCC(c2nc3cc(COC(=O)Nc4cc(OC(F)(F)F)ccc4F)ccc3o2)C(=O)N1 (centres unmarked) [Example 164, (2-(2,6-dioxopiperidin-3-yl)benzo[d]oxazol-5-yl)methyl (2-fluoro-5-(trifluoromethoxy)phenyl)carbamate] | 10 to 100 nM | 100 to 300 nM |  |
| O=C1CCC(N2Cc3cc(C(=O)N4CC5(C=C(c6ccc(F)cc6)C5)C4)ccc3C2=O)C(=O)N1 (centres unmarked) [Example 169, 3-(5-(6-(4-fluorophenyl)-2-azaspiro[3.3]hept-5-ene-2-carbonyl)-1-oxoisoindolin-2-yl)piperidine-2,6-dione] | 10 to 100 nM |  | > 1000 nM |
| O=C1CCC(N2Cc3cc(C(=O)N4Cc5cccc(F)c5C45CC5)ccc3C2=O)C(=O)N1 (centres unmarked) [Example 182, 3-(5-(7′-fluorospiro[cyclopropane-1,1′-isoindoline]-2′-carbonyl)-1-oxoisoindolin-2-yl)piperidine-2,6-dione] | < 10 nM |  | < 100 nM |
| O=C1CCC(N2Cc3cc(C(=O)N4CC5(CCC(OC(F)(F)F)CC5)C4)ccc3C2=O)C(=O)N1 (centres unmarked) [Example 184, 3-(1-oxo-5-(7-(trifluoromethoxy)-2-azaspiro[3.5]nonane-2-carbonyl)isoindolin-2-yl)piperidine-2,6-dione] | 10 to 100 nM | 100 to 300 nM |  |
| O=C1CCC(N2Cc3cc(C(=O)N4CCC5(C4)CC(F)(F)C5)ccc3C2=O)C(=O)N1 (centres unmarked) [Example 189, 3-(5-(2,2-difluoro-6-azaspiro[3.4]octane-6-carbonyl)-1-oxoisoindolin-2-yl)piperidine-2,6-dione] | 100 to 1000 nM |  | > 1000 nM |
| O=C1CCC(c2nc3cc(COC(=O)NC4CC5(C4)CC(F)(F)C5)ccc3o2)C(=O)N1 (centres unmarked) [Example 253, (2-(2,6-dioxopiperidin-3-yl)benzo[d]oxazol-5-yl)methyl (6,6-difluorospiro[3.3]heptan-2-yl)carbamate] | > 1000 nM |  |  |
| O=C1CCC(c2nc3cc(COC(=O)NC4CC5(CCC(F)(F)CC5)C4)ccc3o2)C(=O)N1 (centres unmarked) [Example 260, (2-(2,6-dioxopiperidin-3-yl)benzo[d]oxazol-5-yl)methyl (7,7-difluorospiro[3.5]nonan-2-yl)carbamate] | 100 to 1000 nM |  |  |
| O=C1CCC(c2nc3cc(COC(=O)N4CC5(C4)CC(F)(F)C5)ccc3o2)C(=O)N1 (centres unmarked) [Example 262, (2-(2,6-dioxopiperidin-3-yl)benzo[d]oxazol-5-yl)methyl 6,6-difluoro-2-azaspiro[3.3]heptane-2-carboxylate] | > 1000 nM |  |  |

More lines, main results first:

| IC50 (NCI-H1155 cells) | DC50 (GSPT1; [2]) | Structure (SMILES) | DC50 (GSPT1; [1]) |
| --- | --- | --- | --- |
| 10 to 100 nM | 100 to 300 nM | O=C1CCC(c2nc3ccc(C(=O)N4Cc5cccc(Cl)c5C4)cc3o2)C(=O)N1 (centres unmarked) [Example 158, 3-(6-(4-chloroisoindoline-2-carbonyl)benzo[d]oxazol-2-yl)piperidine-2,6-dione] |  |
| 100 to 1000 nM | 300 to 1000 nM | O=C1CCC(c2nc3ccc(C(=O)N4Cc5cccc(C(F)(F)F)c5C4)cc3o2)C(=O)N1 (centres unmarked) [Example 174, 3-(6-(4-(trifluoromethyl)isoindoline-2-carbonyl)benzo[d]oxazol-2-yl)piperidine-2,6-dione] |  |
| 100 to 1000 nM | 300 to 1000 nM | O=C1CCC(c2nc3ccc(C(=O)N4Cc5cc(F)cc(F)c5C4)cc3o2)C(=O)N1 (centres unmarked) [Example 176, 3-(6-(4,6-difluoroisoindoline-2-carbonyl)benzo[d]oxazol-2-yl)piperidine-2,6-dione] |  |
| 10 to 100 nM | 300 to 1000 nM | O=C1CCC(c2nc3ccc(C(=O)N4Cc5cc(F)cc(Cl)c5C4)cc3o2)C(=O)N1 (centres unmarked) [Example 178, 3-(6-(4-chloro-6-fluoroisoindoline-2-carbonyl)benzo[d]oxazol-2-yl)piperidine-2,6-dione] |  |
| 10 to 100 nM | < 100 nM | O=C1CCC(N2Cc3cc(C(=O)N4CC5(CC(c6ccccc6F)C5)C4)ccc3C2=O)C(=O)N1 (centres unmarked) [Example 196, 3-(5-(6-(2-fluorophenyl)-2-azaspiro[3.3]heptane-2-carbonyl)-1-oxoisoindolin-2-yl)piperidine-2,6-dione] |  |
| 100 to 1000 nM | > 1000 nM | O=C1CCC(c2nc3ccc(C(=O)N4Cc5ccc(F)c(Cl)c5C4)cc3o2)C(=O)N1 (centres unmarked) [Example 197, 3-(6-(4-chloro-5-fluoroisoindoline-2-carbonyl)benzo[d]oxazol-2-yl)piperidine-2,6-dione] |  |
| > 1000 nM | > 1000 nM | O=C1CCC(c2nc3ccc(C(=O)N4CC5(CCC(F)(F)C5)C4)cc3o2)C(=O)N1 (centres unmarked) [Example 198, 3-(6-(6,6-difluoro-2-azaspiro[3.4]octane-2-carbonyl)benzo[d]oxazol-2-yl)piperidine-2,6-dione] |  |
| 100 to 1000 nM | > 1000 nM | Cc1cc(F)c2c(c1)CN(C(=O)c1ccc3nc(C4CCC(=O)NC4=O)oc3c1)C2 (centres unmarked) [Example 199, 3-(6-(4-fluoro-6-methylisoindoline-2-carbonyl)benzo[d]oxazol-2-yl)piperidine-2,6-dione] |  |
| 100 to 1000 nM | > 1000 nM | N#Cc1cc(F)c2c(c1)CN(C(=O)c1ccc3nc(C4CCC(=O)NC4=O)oc3c1)C2 (centres unmarked) [Example 200, 2-(2-(2,6-dioxopiperidin-3-yl)benzo[d]oxazole-6-carbonyl)-7-fluoroisoindoline-5-carbonitrile] |  |
| 100 to 1000 nM |  | O=C1CCC(N2Cc3cc(C(=O)N4CCC5(CC(c6cccc(F)c6)C5)C4)ccc3C2=O)C(=O)N1 (centres unmarked) [Example 250, 3-(5-(2-(3-fluorophenyl)-6-azaspiro[3.4]octane-6-carbonyl)-1-oxoisoindolin-2-yl)piperidine-2,6-dione] |  |
| 100 to 1000 nM |  | O=C1CCC(N2Cc3cc(C(=O)N4CC5(CCC(C(F)(F)F)CC5)C4)ccc3C2=O)C(=O)N1 (centres unmarked) [Example 251, 3-(1-oxo-5-(7-(trifluoromethyl)-2-azaspiro[3.5]nonane-2-carbonyl)isoindolin-2-yl)piperidine-2,6-dione] |  |
| > 1000 nM |  | O=C1CCC(c2nc3ccc(C(=O)N4CC5(CCC(C(F)(F)F)C5)C4)cc3o2)C(=O)N1 (centres unmarked) [Example 252, 3-(6-(6-(trifluoromethyl)-2-azaspiro[3.4]octane-2-carbonyl)benzo[d]oxazol-2-yl)piperidine-2,6-dione] |  |
| 100 to 1000 nM |  | O=C1CCC(N2Cc3cc(C(=O)NC4CC5(C=C(c6ccc(C(F)(F)F)cc6)C5)C4)ccc3C2=O)C(=O)N1 (centres unmarked) [Example 256, 2-(2,6-dioxopiperidin-3-yl)-1-oxo-N-(6-(4-(trifluoromethyl)phenyl)spiro[3.3]hept-5-en-2-yl)isoindoline-5-carboxamide] |  |
| > 1000 nM |  | O=C1CCC(c2nc3ccc(C(=O)N4CC5(CCC(C(F)(F)F)CC5)C4)cc3o2)C(=O)N1 (centres unmarked) [Example 259, 3-(6-(7-(trifluoromethyl)-2-azaspiro[3.5]nonane-2-carbonyl)benzo[d]oxazol-2-yl)piperidine-2,6-dione] |  |
